The values that follow come from patent publication US8785457B2 (Cellzome Limited, priority 2009, dated 2014).

The assay concerns S6RP serine-240/244 phosphorylation. The assay is described as follows: In vitro Phospho-S6 cellular assay (pS6RP S240/244) in HEK293T/17 cells. Format: cell-based. The settings on record: Homo sapiens, 2 hours, read-out: pS6 IC50. Put shortly: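 Compounds were tested at eight concentrations on adhered HEK293T/17 cells for 2 h at 37 °C (2% FCS, 0.1% DMSO), at 80,000 cells/well for pAkt S473 and 40,000 for pS6RP S240/244. Lysates were captured on phospho-specific antibody MSD plates with Sulfo-Tag detection. Values came from nonlinear variable-slope regression.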
In general, IC50 refers to the concentration that inhibits the measured activity by half. On to `C[C@H]1COCCN1c1nc(-c2ccc(NC(=O)NC3CC3)cc2F)nc2c1CCNC2` [Example 163, (S)-1-cyclopropyl-3-(3-fluoro-4-(4-(3-methylmorpholino)-5,6,7,8-tetrahydropyrido[3,4-d]pyrimidin-2-yl)phenyl)urea], for which the IC50 amounted to 405 nM. For `CCOC(=O)N1Cc2nc(-c3ccc(NC(=O)NCCO)cc3F)nc(N3CCOC[C@@H]3C)c2C1` [Example 167, (S)-Ethyl 2-(2-fluoro-4-(3-(2-hydroxyethyl)ureido)phenyl)-4-(3-methylmorpholino)-5H-pyrrolo[3,4-d]pyrimidine-6(7H)-carboxylate], the IC50 stood at 615 nM. With `C[C@H]1COCCN1c1nc(-c2ccc(NC(=O)NC3CC3)cc2)nc2c1CN(CC(C)(C)C)C2` [Example 25, (S)-1-cyclopropyl-3-(4-(4-(3-methylmorpholino)-6-neopentyl-6,7-dihydro-5H-pyrrolo[3,4-d]pyrimidin-2-yl)phenyl)urea], the IC50 amounted to 98 nM.

On to `CCOC(=O)N1Cc2nc(-c3ccc(NC(=O)NCCF)cc3F)nc(N3CCOC[C@@H]3C)c2C1` [Example 168, (S)-ethyl 2-(2-fluoro-4-(3-(2-fluoroethyl)ureido)phenyl)-4-(3-methylmorpholino)-5H-pyrrolo[3,4-d]pyrimidine-6(7H)-carboxylate], for which the IC50 turned out to be 97 nM. Take `CC(C)CN1CCc2c(nc(-c3ccc(NC(=O)NC4CC4)cc3)nc2N2CCOC[C@@H]2C)C1` [Example 42, (S)-1-cyclopropyl-3-(4-(7-isobutyl-4-(3-methylmorpholino)-5,6,7,8-tetrahydropyrido[3,4-d]pyrimidin-2-yl)phenyl)urea]: the IC50 turned out to be 104 nM.

With `CNC(=O)Nc1ccc(-c2nc3c(c(N4CCOC[C@@H]4C)n2)CCNC3)cc1` [Example 16, (S)-1-methyl-3-(4-(4-(3-methylmorpholino)-5,6,7,8-tetrahydropyrido[3,4-d]pyrimidin-2-yl)phenyl)urea], the 50% inhibitory concentration (IC50) worked out at 297 nM. With `CC(C)C(=O)N1Cc2nc(-c3ccc(NC(=O)NC4CC4)cc3)nc(N3CCOC[C@@H]3C)c2C1` [Example 44, (S)-1-cyclopropyl-3-(4-(6-isobutyryl-4-(3-methylmorpholino)-6,7-dihydro-5H-pyrrolo[3,4-d]pyrimidin-2-yl)phenyl)urea], the IC50 came to 205 nM.

In the case of `CCNC(=O)Nc1ccc(-c2nc3c(c(N4CCOC[C@@H]4C)n2)CN(CC)C3)cc1` [Example 39, (S)-1-ethyl-3-(4-(6-ethyl-4-(3-methylmorpholino)-6,7-dihydro-5H-pyrrolo[3,4-d]pyrimidin-2-yl)phenyl)urea], the IC50 amounted to 140 nM. To `C[C@H]1COCCN1c1nc(-c2ccc(NC(=O)NC3CC3)cc2F)nc2c1CN(C)C2` [Example 147, (S)-1-cyclopropyl-3-(3-fluoro-4-(6-methyl-4-(3-methylmorpholino)-6,7-dihydro-5H-pyrrolo[3,4-d]pyrimidin-2-yl)phenyl)urea] belongs 282 nM; to `C[C@@H]1COCCN1c1nc(-c2ccc(NC(=O)NC3CC3)cc2F)nc2c1CN(S(C)(=O)=O)C2` [Example 191, (R)-1-cyclopropyl-3-(3-fluoro-4-(4-(3-methylmorpholino)-6-(methylsulfonyl)-6,7-dihydro-5H-pyrrolo[3,4-d]pyrimidin-2-yl)phenyl)urea], 180 nM. For the molecule `C[C@H]1COCCN1c1nc(-c2ccc(NC(=O)NC3CCC3)cc2)nc2c1CN(C)C2` [Example 55, (S)-1-cyclobutyl-3-(4-(6-methyl-4-(3-methylmorpholino)-6,7-dihydro-5H-pyrrolo[3,4-d]pyrimidin-2-yl)phenyl)urea], the half-inhibitory concentration (IC50) was found to be 435 nM.

As for `CC(C)N1Cc2nc(-c3ccc(NC(=O)NCCF)cc3F)nc(N3CCOCC3)c2C1` [Example 185, 1-(3-fluoro-4-(6-isopropyl-4-morpholino-6,7-dihyro-5H-pyrrolo[3,4-d]pyrimidin-2-yl)phenyl)-3-(2-fluoroethyl)urea], the IC50 was determined as 360 nM. For the molecule `C[C@@H]1COCCN1c1nc(-c2ccc(NC(=O)NC3CC3)cc2F)nc2c1CN(C=O)C2` [Example 190, (R)-1-cyclopropyl-3-(3-fluoro-4-(6-formyl-4-(3-methylmorpholino)-6,7-dihydro-5H-pyrrolo[3,4-d]pyrimidin-2-yl)phenyl)urea], the IC50 was 351 nM. With `CCNC(=O)Nc1ccc(-c2nc3c(c(N4CCOC[C@@H]4C)n2)CN(C=O)C3)cc1` [Example 8, (S)-1-ethyl-3-(4-(6-formyl-4-(3-methylmorpholino)-6,7-dihydro-5H-pyrrolo[3,4-d]pyrimidin-2-yl)phenyl)urea], the IC50 is 289 nM. As for `CCNC(=O)Nc1ccc(-c2nc3c(c(N4CCOC[C@@H]4C)n2)CN(CC2CC2)C3)cc1` [Example 28, (S)-1-(4-(6-(cyclopropylmethyl)-4-(3-methylmorpholino)-6,7-dihydro-5H-pyrrolo[3,4-d]pyrimidin-2-yl)phenyl)-3-ethylurea], the IC50 came to 72 nM. For `CCNC(=O)Nc1ccc(-c2nc3c(c(N4CCOC[C@@H]4C)n2)CN(C)C3)c(F)c1` [Example 160, (S)-1-ethyl-3-(3-fluoro-4-(6-methyl-4-(3-methylmorpholino)-6,7-dihydro-5H-pyrrolo[3,4-d]pyrimidin-2-yl)phenyl)urea], the 50% inhibitory concentration (IC50) is 355 nM.

Take `CCNC(=O)Nc1ccc(-c2nc3c(c(N4CCOC[C@@H]4C)n2)CN(C(=O)C2CC2)C3)cc1` [Example 23, (S)-1-(4-(6-(cyclopropanecarbonyl)-4-(3-methylmorpholino)-6,7-dihydro-5H-pyrrolo[3,4-d]pyrimidin-2-yl)phenyl)-3-ethylurea]: the IC50 is 115 nM. On to `COC(=O)N1Cc2nc(-c3ccc(NC(=O)NCCO)cc3F)nc(N3CCOC[C@@H]3C)c2C1` [Example 181, (S)-methyl 2-(2-fluoro-4-(3-(2-hydroxyethyl)ureido)phenyl)-4-(3-methylmorpholino)-5H-pyrrolo[3,4-d]pyrimidine-6(7H)-carboxylate], for which the IC50 worked out at 962 nM. The value for `CCNC(=O)Nc1ccc(-c2nc3c(c(N4CCOCC4)n2)CN(C)C3)c(F)c1` [Example 154, 1-ethyl-3-(3-fluoro-4-(6-methyl-4-morpholino-6,7-dihydro-5H-pyrrolo[3,4-d]pyrimidin-2-yl)phenyl)urea] was 436 nM; that for `CC(=O)N1Cc2nc(-c3ccc(NC(=O)NC4CC4)cc3F)nc(N3CCOC[C@@H]3C)c2C1` [Example 155, (S)-1-(4-(6-acetyl-4-(3-methylmorpholino)-6,7-dihydro-5H-pyrrolo[3,4-d]pyrimidin-2-yl)-3-fluorophenyl)-3-cyclopropylurea] was 815 nM. For the molecule `CC(C)N1Cc2nc(-c3ccc(NC(=O)NC4CC4)cc3)nc(N3CCOC[C@@H]3C)c2C1` [Example 46, (S)-1-cyclopropyl-3-(4-(6-isopropyl-4-(3-methylmorpholino)-6,7-dihydro-5H-pyrrolo[3,4-d]pyrimidin-2-yl)phenyl)urea], the half-inhibitory concentration (IC50) is 147 nM.

Turning to `CCOC(=O)N1Cc2nc(-c3ccc(NC(=O)NCCO)cc3F)nc(N3CCOCC3)c2C1` [Example 171, ethyl 2-(2-fluoro-4-(3-(2-hydroxyethyl)ureido)phenyl)-4-morpholino-5H-pyrrolo[3,4-d]pyrimidine-6(7H)-carboxylate], the IC50 turned out to be 983 nM. `CC(=O)N1Cc2nc(-c3ccc(NC(=O)NC4CC4)cc3)nc(N3CCOC[C@@H]3C)c2C1` [Example 20, (S)-1-(4-(6-acetyl-4-(3-methylmorpholino)-6,7-dihydro-5H-pyrrolo[3,4-d]pyrimidin-2-yl)phenyl)-3-cyclopropylurea]: the IC50 is 330 nM. As to `CCNC(=O)Nc1ccc(-c2nc3c(c(N4CCOC[C@@H]4C)n2)CN(Cc2ccc(F)cc2)C3)cc1` [Example 29, (S)-1-ethyl-3-(4-(6-(4-fluorobenzyl)-4-(3-methylmorpholino)-6,7-dihydro-5H-pyrrolo[3,4-d]pyrimidin-2-yl)phenyl)urea], the IC50 was 130 nM. Turning to `CCNC(=O)Nc1ccc(-c2nc3c(c(N4CCOC[C@@H]4C)n2)CN(C(=O)c2ccc(F)cc2)C3)cc1` [Example 19, (S)-1-ethyl-3-(4-(6-(4-fluorobenzoyl)-4-(3-methylmorpholino)-6,7-dihydro-5H-pyrrolo[3,4-d]pyrimidin-2-yl)phenyl)urea], the IC50 came to 135 nM.

Consider `C[C@H]1COCCN1c1nc(-c2ccc(NC(=O)NC3CC3)cc2)nc2c1CCNC2` [Example 15, (S)-1-cyclopropyl-3-(4-(4-(3-methylmorpholino)-5,6,7,8-tetrahydropyrido[3,4-d]pyrimidin-2-yl)phenyl)urea], for which the IC50 worked out at 238 nM.

Turning to `CCN1Cc2nc(-c3ccc(NC(=O)NC4CC4)cc3)nc(N3CCOC[C@@H]3C)c2C1` [Example 36, (S)-1-cyclopropyl-3-(4-(6-ethyl-4-(3-methylmorpholino)-6,7-dihydro-5H-pyrrolo[3,4-d]pyrimidin-2-yl)phenyl)urea], the IC50 was determined as 113 nM. To `CCNC(=O)Nc1ccc(-c2nc3c(c(N4CCOC[C@@H]4C)n2)CNCC3)cc1` [Example 12, (S)-1-ethyl-3-(4-(4-(3-methylmorpholino)-5,6,7,8-tetrahydropyrido[4,3-d]pyrimidin-2-yl)phenyl)urea] belongs 839 nM.

As for `CCNC(=O)Nc1ccc(-c2nc3c(c(N4CCOC[C@@H]4C)n2)CCNC3)c(F)c1` [Example 164, (S)-1-ethyl-3-(3-fluoro-4-(4-(3-methylmorpholino)-5,6,7,8-tetrahydropyrido[3,4-d]pyrimidin-2-yl)phenyl)urea], the IC50 stood at 510 nM.

Regarding `CCNC(=O)Nc1ccc(-c2nc3c(c(N4CCOC[C@@H]4C)n2)CN(S(C)(=O)=O)C3)cc1` [Example 32, (S)-1-ethyl-3-(4-(4-(3-methylmorpholino)-6-(methylsulfonyl)-6,7-dihydro-5H-pyrrolo[3,4-d]pyrimidin-2-yl)phenyl)urea], the concentration for half-maximal inhibition (IC50) was determined as 182 nM.

Take `C[C@H]1COCCN1c1nc(-c2ccc(NC(=O)NC3CC3)cc2)nc2c1CN(C(=O)C(C)(C)C)C2` [Example 45, (S)-1-cyclopropyl-3-(4-(4-(3-methylmorpholino)-6-pivaloyl-6,7-dihydro-5H-pyrrolo[3,4-d]pyrimidin-2-yl)phenyl)urea]: the IC50 turned out to be 63 nM.
